The source of these data is article PMC10146281, “Pharmacokinetic and Pharmacodynamic Characteristics of Pelubiprofen Tromethamine vs. Pelubiprofen in Healthy Subjects” (Pharmaceutics, 2023).

A short description of series [1]: Study II (DW1809-103): pharmacokinetic analysis of plasma pelubiprofen (LC-MS/MS) after single oral dose. The procedure: (§1) In this study, the two independent clinical trials (Study I and II) were conducted using an identical randomized, open-label, oral, single-dose, fasted, two-sequence, four-period, crossover design. Due to the known pharmacokinetic characteristics of pelubiprofen with its large intra-subject variability, the replicated design was chosen to calculate the true intra-coefficient of variation in both studies. Study I tested 25 mg of pelubiprofen tromethamine (36.73 mg of pelubiprofen tromethamine salt; 25 mg of pelubiprofen, Daewon Pharmaceutical Co., Ltd., Seoul, Republic of Korea) against 30 mg of pelubiprofen (30.0 mg of pelubiprofen, Daewon Pharmaceutical Co., Ltd., Seoul, Republic of Korea) as the reference. Study II tested 30 mg of pelubiprofen tromethamine (44.07 mg of pelubiprofen tromethamine salt; 30 mg of pelubiprofen, Daewon Pharmaceutical Co., Ltd., Seoul, Republic of Korea) against 30 mg of pelubiprofen (30.0 mg of pelubiprofen, Daewon Pharmaceutical Co., Ltd., Seoul, Republic of Korea) as the reference. The target number of subjects in both Study I and II was set to N = 36 (N = 18 for each sequence group) (Figure 1, Table 1).
(§2) The subject screening in both Study I and Study II was performed in the four weeks ([…]) prior to the first administration (Day 1). […] In addition, the screened subjects fasted for at least 10 h, excluding drinking water, from approximately 10 p.m. until administration of the investigational drug. The randomization in both Study I and II led the subjects to receive oral administration of a single test or reference tablet with approximately 150 mL of water at each time point from approximately 8 a.m. at approximately 2 min intervals according to their numbers. The subjects in both Study I and II were prohibited from drinking water for an hour before and after the administration, except during drug administration. The post-administration blood sampling and tests were performed as scheduled. All subjects were provided with identical meals approximately 4 h after blood sampling. The subjects in both Study I and II received the blood sampling and tests for the pharmacokinetic (PK) evaluation approximately 8 h after administration. Then, they were discharged following the completion of the first period of the study.
(§3) To analyze the PK characteristics in both Study I and II, approximately 5 mL of blood was sampled before administration (0 h) and at the following time points after administration; 0.083 h (5 min), 0.167 h (10 min), 0.33 h (20 min), and 0.5, 0.75, 1, 1.5, 2, 2.5, 3, 3.5, 4, 6, and 8 h. Therefore, for each subject, the blood sampling was performed 15 times in each period, resulting in a total of 60 times. All four periods proceeded on the same schedule as the first period in both Study I and II. The wash-out period between each consecutive period was set to a minimum of four days. The subjects in both Study I and II, after completing all four periods, chose a day from Day 5 to Day 7 of the final administration in the four period for visiting the center to undergo post study visit.
(§4) The validation of the quantitative analysis of plasma pelubiprofen in this study was performed in accordance with the following guidelines: the Validation Protocol for Pelubiprofen Quantification, the domestic Standard Operating Procedure (SOP) for Bioanalyses, the Guideline of Bioanalytical Method Validation (MFDS, December 2013), and Bioanalytical Method Validation Guidance for Industry (USA FDA, 2018). The plasma pelubiprofen was pretreated using protein precipitation in a dark room at room temperature (15–25 °C) and under shielded light for the subsequent liquid chromatograph tandem mass spectrometry (LC-MS/MS) analysis. The tested items in the validation included the intra-batch and inter-batch accuracy, precision, selectivity, linearity, and stability.

Series [2] can be described thus: Study I (DW1809-102): pharmacokinetic analysis of plasma pelubiprofen (LC-MS/MS) after single oral dose. To be noted: for Tmax: N = 35, median (minimum–maximum). The procedure:
as §1, §2, §3, §4

Series [3] is described as follows: Study I safety and tolerability evaluation (adverse events). In kind it is in vivo, human. To be noted: for adverse events: Study I, 36 subjects evaluated, all mild. How it is done:
In both Study I and II, the safety evaluation was performed on subjects administered with the investigational drug at least once. Any clinically significant findings in the interview, physical examination, vital signs, 12-lead electrocardiogram (ECG), the clinical laboratory test, etc., during the study period were collected as adverse events, which were subsequently evaluated for the incidence of serious adverse events, severity, causal relationship, etc. All relevant data were collected through monitoring by the investigator and voluntary reporting by the subjects. To collect additional data, interview and physical examination were performed where necessary. The investigator carried out the follow-up monitoring of the subjects with adverse events until the symptoms subsided and abnormal test values returned to a healthy baseline or until a satisfactory explanation for the observed change could be provided.

Setting [4] is: Study II, 30 mg pelubiprofen tromethamine vs. 30 mg pelubiprofen.
Where [5] appears, read: Study II, healthy subjects, single oral 30 mg pelubiprofen tromethamine, fasted, N = 33, mean ± SD.
Setting [6] is: Study I, healthy subjects, single oral 25 mg pelubiprofen tromethamine, fasted, N = 35, mean ± SD.

A word on the CL/F: it is clearance divided by bioavailability, as obtained after extravascular dosing. As usually defined, the Cmax is the peak of the concentration-time curve. The Vd/F is the volume of distribution divided by bioavailability. For orientation: half-life means the time needed for the level to fall by half in the phase considered. A lower half-life goes with rapid decline.

Turning to `CC(C(=O)O)c1ccc(/C=C2\CCCCC2=O)cc1` (stereo not drawn) [Pelubiprofen Tromethamine, pelubiprofen tromethamine], in series [1] (setting [4]), the “increase of AUC0-t compared to the reference” value is 24% and the “increase of Cmax compared to the reference” value stood at 29%. In series [1] (setting [5]), the AUC0-inf was found to be 447.75 ± 123.40 ng·h/mL, the AUC0-t is 446.44 ± 123.33 ng·h/mL, the apparent clearance (CL/F) was 72.08 ± 19.97 L/h and the maximum concentration (Cmax) was found to be 770.01 ± 347.86 ng/mL. In series [1] (setting [5]), the Vd/F is listed as 94.56 ± 52.40 L and the t1/2 stood at 57 ± 33.6 min. Besides, in series [1] (Study II, healthy subjects, single oral 30 mg pelubiprofen tromethamine, fasted, N = 33, median (minimum–maximum)), the Tmax is 0.33 (0.17–2.50) h. In series [2] (Study I, 25 mg pelubiprofen tromethamine dose group), the “time after oral administration at which plasma concentration of pelubiprofen returned to baseline” value was “approximately 4 h”. The “bioequivalence evaluation of Cmax and AUC0-t vs. 30 mg pelubiprofen” value in series [2] (Study I, 25 mg pelubiprofen tromethamine, criteria 90% CI log 0.70–log 1.43 (Cmax), log 0.8–log 1.25 (AUC0-t)) is reported as “satisfied the bioequivalence study criteria”. Moreover, in series [2] (setting [6]), the AUC0-inf was determined as 372.12 ± 92.16 ng·h/mL, the AUC0-t amounted to 370.76 ± 91.86 ng·h/mL, the apparent clearance CL/F was 71.78 ± 19.79 L/h and the Cmax was determined as 645.80 ± 237.73 ng/mL. Also, in series [2] (setting [6]), the Vd/F is 87.43 ± 40.63 L and the t1/2 is 52.2 ± 23.4 min. Further, the Tmax in series [2] (Study I, healthy subjects, single oral 25 mg pelubiprofen tromethamine, fasted) is reported as 0.33 (0.17–1.50) h. Also, the Tmax result in series [2] (Study I, healthy subjects, single oral 25 mg pelubiprofen tromethamine, fasted, listed as pelubiprofen tromethamine) was “approximately 0.33 h”. The tolerability and safety entry in series [3] (25 mg pelubiprofen tromethamine compared to 30 mg pelubiprofen, healthy subjects, single oral dose) was “outstanding tolerability and safety”. In series [3] (treatment of the test (25 mg pelubiprofen tromethamine)), the adverse events result was “one case of adverse events”.
For the molecule `CC(C(=O)O)c1ccc(/C=C2\CCCCC2=O)cc1` (stereo not drawn) [Pelubiprofen, 2-[4-(oxocyclohexylidenemethyl)-phenyl] propionic acid], the CL/F in series [1] (Study II, healthy subjects, single oral 30 mg pelubiprofen (reference), fasted, N = 33, mean ± SD) was 90.55 ± 32.04 L/h; in series [2] (Study I, healthy subjects, single oral 30 mg pelubiprofen (reference), fasted, N = 35, mean ± SD), 92.12 ± 28.68 L/h. Further, the “highest within-subject variability for Cmax” value in series [1] (Study II, reference 30 mg pelubiprofen, fasting, four-period repeated crossover) was “approximately 58%”; in series [2] (Study I, reference 30 mg pelubiprofen, four-period repeated crossover), “approximately 58%”. Besides, the AUC0-inf in series [1] (human, plasma, po, 30 mg) was determined as 366 ± 108 ng·h/mL; in series [2] (human, plasma, po, 30 mg), 355 ± 103 ng·h/mL. In addition, the AUC0-t in series [1] (human, plasma, po, 30 mg) stood at 365 ± 108 ng·h/mL; in series [2] (human, plasma, po, 30 mg), 352 ± 103 ng·h/mL. In addition, the Cmax in series [1] (human, plasma, po, 30 mg) was 619 ± 336 ng/mL; in series [2] (human, plasma, po, 30 mg), 619 ± 368 ng/mL. Also, the Tmax in series [1] (human, plasma, po, 30 mg) was 30 min; in series [2] (Study I, healthy subjects, single oral 30 mg pelubiprofen (reference), fasted) it was 0.33 (0.17–3.50) h; in series [2] (human, plasma, po, 30 mg, Tmax, Study I, healthy subjects, single oral 30 mg pelubiprofen (reference), fasted), about 19.8 min. Moreover, the Vd/F in series [1] (human, plasma, po, 30 mg) was 119 ± 94.1 L; in series [2] (human, plasma, po, 30 mg) it was 125 ± 58.8 L. The half-life was 55.8 ± 41.4 min in series [1] (human, plasma, po, 30 mg) and 59.4 ± 32.4 min in series [2] (human, plasma, po, 30 mg). The adverse events entry in series [3] (treatment of reference (30 mg pelubiprofen)) is “three cases of adverse events”.
